Laboratory results: US20040248887A1, “Inhibitors of cathepsin S” (IRM LLC, priority 2003, published 2004)

Molecular target: Cathepsin S (Homo sapiens, UniProt P25774)
Assay: Cathepsin S inhibition, fluorogenic peptide substrate kinetic assay
Assay type: biochemical
Conditions: Table II; Cathepsin S inhibition constant, pH5.5; read-out: Ki Cat. S
From the text: “Inhibition constant”, Ki, is the dissociation constant of the enzyme-inhibitor complex, or the reciprocal of the binding affinity of the inhibitor to the enzyme. […] The inhibited rates are then fit by nonlinear regression to the following equation: [formula]
where vo is the initial rate of substrate processing in the absence of inhibitor, v; is the initial rate of substrate processing at a concentration [I] of inhibitor, Km is the steady state Michaelis constant (Fersht, A. Structure and Mechanism in Protein Science. New York, W.H. Freeman and Company, 1999), and [S] is the concentration of competitive substrate.
The assumption being made for the classical inhibition described above is that the free inhibitor concentration is equal to the total inhibitor concentration.
The inhibition constant, Ki, can be determined from the apparent inhibition constant, Ki^app, for competitive inhibitors by using the following relationship: [formula]
The optimal substrate for cathepsin S, acetyl-histidine-proline-valine-lysine-amino carbamoyl coumarin, was identified from screening a combinatorial library of fluorogenic peptide substrates (Harris, J. L., B. J. Backes, et al., Proc Natl Acad Sci USA 2000, 97(14), 7754-9). Kinetic measurements are performed in a total reaction volume of 30 μl in 384-well microtiter plates. […] The reactions are initiated by adding the substrate, acetyl-histidine-proline-valine-lysine-amino carbamoyl coumarin, to a final concentration of 50 μM. The rate of substrate hydrolysis is measured by monitoring the increase in fluorescence at an excitation wavelength of 380 nm and an emission wavelength of 450 nm that results from cleavage of the aniline bond in the substrate by the enzyme. The apparent inhibition constants for the compounds are determined from the enzyme progress curves (Kuzmic, P., K. C. Elrod, et al., Anal Biochem 2000, 286(1), 45-50) and are then used to calculate the inhibition constants for competitive inhibitors.

Cathepsin S, sequence (P25774 115-331, species assumed): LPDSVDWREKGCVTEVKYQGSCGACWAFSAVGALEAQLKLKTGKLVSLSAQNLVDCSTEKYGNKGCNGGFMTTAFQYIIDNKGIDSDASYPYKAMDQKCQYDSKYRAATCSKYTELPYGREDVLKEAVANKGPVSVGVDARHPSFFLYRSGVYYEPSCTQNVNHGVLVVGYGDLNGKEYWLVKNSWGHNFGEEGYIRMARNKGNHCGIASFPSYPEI

Ki [nM] | Compound
< 100 | Cc1nc(-c2ccc(S(=O)(=O)N[C@@H](CC3CCCCC3)C(=O)NCCN3CCc4cc(F)ccc43)s2)cs1 [Compound 237, (S)-3-Cyclohexyl-N-[2-(5-fluoro-2,3-dihydro-indol-1-yl)-ethyl]-2-[5-(2-methyl-thiazol-4-yl)-thiophene-2-sulfonylamino]-propionamide]
< 1000 | C[C@@H](CNc1ccc(S(=O)(=O)N2CCOCC2)cc1)NC(=O)[C@H](CC1CCCCC1)NC(=O)c1ccc(-c2cccc(F)c2)o1 [Compound 136, 5-(3-Fluoro-phenyl)-furan-2-carboxylic acid (2-cyclohexyl-1-(S)-{1-(S)-methyl-2-[4-(morpholine-4-sulfonyl)-phenylamino]-ethylcarbamoyl}-ethyl)-amide]
< 1000 | Cc1cccc(C(=O)N[C@@H](CC(C)C)C(=O)N[C@@H](CCNC(N)=O)CN2CCc3cc(F)ccc32)c1 [Compound 45, (S,S)-N-{1-[1-(5-Fluoro-2,3-dihydro-indol-1-ylmethyl)-3-ureido-propylcarbamoyl]-3-methyl-butyl}-3-methyl-benzamide]
< 1000 | O=C(N[C@@H](Cc1cccc(Cl)c1)C(=O)NCCN1CCc2cc(F)ccc21)c1ccc(-c2cccc(C(F)(F)F)c2)o1 [Compound 196, N-((S)-1-(2-(5-fluoroindolin-1-yl)ethylcarbamoyl)-2-(3-chlorophenyl)ethyl)-5-(3-(trifluoromethyl)phenyl)furan-2-carboxamide]
< 100 | Cc1cccc(C(=O)N[C@@H](CC(C)C)C(=O)N[C@@H](CCC(N)=O)CN2CCc3cc(F)ccc32)c1 [Compound 44, (S,S)-N-{1-[3-Carbamoyl-1-(5-fluoro-2,3-dihydro-indol-1-ylmethyl)-propylcarbamoyl]-3-methyl-butyl}-3-methyl-benzamide]
< 100 | Cc1occ(C(F)(F)F)c1S(=O)(=O)N[C@@H](CC1CCCCC1)C(=O)N[C@@H](C)CN1CCc2cc(F)ccc21 [Compound 253, (S,S)-3-Cyclohexyl-N-[2-(5-fluoro-2,3-dihydro-indol-1-yl)-1-methyl-ethyl]-2-(2-methyl-4-trifluoromethyl-furan-3-sulfonylamino)-propionamide]
< 100 | C[C@@H](CN1CCc2cc(F)ccc21)NC(=O)[C@H](CC1CCCCC1)NC(=O)OCc1ccccc1 [Compound 174, {2-Cyclohexyl-1-(S)-[2-(5-fluoro-2,3-dihydro-indol-1-yl)-1-(S)-methyl-ethylcarbamoyl]-ethyl}-carbamic acid benzyl ester]
< 1000 | COc1ccc(N[C@@H]2CCCC[C@H]2NC(=O)[C@H](CC(C)C)NC(=O)c2cccc(C)c2)cc1 (mixture of isomers) [Compound 34, N-{1-(S)-[trans-2-(4-Methoxy-phenylamino)-cyclohexylcarbamoyl]-3-methyl-butyl}-3-methyl-benzamide]
< 100 | C[C@@H](CN1CCc2cc(F)ccc21)NC(=O)[C@H](CC(C)(C)C)NC(=O)OCc1ccccc1 [Compound 176, {1-(S)-[2-(5-Fluoro-2,3-dihydro-indol-1-yl)-1-(S)-methyl-ethylcarbamoyl]-3,3-dimethyl-butyl}-carbamic acid benzyl ester]
< 1000 | O=C(N[C@@H](CC1CCCCC1)C(=O)NCCN1CCc2cc(F)ccc21)C1CCN(S(=O)(=O)c2ccccc2)CC1 [Compound 58, 1-Benzenesulfonyl-piperidine-4-carboxylic acid (S)-{2-cyclohexyl-1-[2-(5-fluoro-2,3-dihydro-indol-1-yl)-ethylcarbamoyl]-ethyl}-amide]
< 1000 | Cc1cccc(C(=O)N[C@@H](Cc2cccc(Cl)c2)C(=O)NCCN2CCc3cc(F)ccc32)c1 [Compound 197, N-((S)-1-(2-(5-fluoroindolin-1-yl)ethylcarbamoyl)-2-(3-chlorophenyl)ethyl)-3-methylbenzamide]
< 100 | O=C(N[C@@H](CC1CCCCC1)C(=O)N[C@@H](CO)CN1CCc2cc(F)ccc21)c1ccc(-c2cccc(C(F)(F)F)c2)o1 [Compound 153, 5-(3-Trifluoromethyl-phenyl)-furan-2-carboxylic acid {2-cyclohexyl-1-(S)-[2-(5-fluoro-2,3-dihydro-indol-1-yl)-1-(R)-hydroxymethyl-ethylcarbamoyl]-ethyl}-amide]
< 100 | O=C(N[C@@H](CC1CCCCC1)C(=O)NCCN1CCc2cc(F)ccc21)c1ccc(-c2cccc(C(F)(F)F)c2)o1 [Compound 2, 5-(3-Trifluoromethyl-phenyl)-furan-2-carboxylic acid (S)-{2-cyclohexyl-1-[2-(5-fluoro-2,3-dihydro-indol-1-yl)-ethylcarbamoyl]-ethyl}-amide]
< 10000 | Cn1cncc1S(=O)(=O)N[C@@H](CC1CCCCC1)C(=O)NCCN1CCc2cc(F)ccc21 [Compound 232, (S)-3-Cyclohexyl-N-[2-(5-fluoro-2,3-dihydro-indol-1-yl)-ethyl]-2-(3-methyl-3H-imidazole-4-sulfonylamino)-propionamide]
< 10000 | COc1cccc(C(=O)N[C@@H](CCC2CCCCC2)C(=O)NCCN2CCc3cc(C#N)ccc32)c1 [Compound 12, (S)-N-{3-Cyclohexyl-1-[2-(5-cyano-2,3-dihydro-indol-1-yl)-ethylcarbamoyl]-propyl}-3-methoxy-benzamide]
< 100 | COc1ccc(NC[C@H](C)NC(=O)[C@H](CC(C)(C)C)NC(=O)c2ccc(-c3cccc(F)c3)o2)cc1 [Compound 132, 5-(3-Fluoro-phenyl)-furan-2-carboxylic acid {1-(S)-[2-(4-methoxy-phenylamino)-1-(S)-methyl-ethylcarbamoyl]-3,3-dimethyl-butyl}-amide]
< 100 | C[C@@H](CNc1cccc(C(N)=O)c1)NC(=O)[C@H](CC1CCCCC1)NC(=O)c1ccc(-c2cccc(F)c2)o1 [Compound 98, 5-(3-Fluoro-phenyl)-furan-2-carboxylic acid {1-(S)-[2-(3-carbamoyl-phenylamino)-1-(S)-methyl-ethylcarbamoyl]-2-cyclohexyl-ethyl}-amide]
< 1000 | CS(=O)(=O)N1CCC(Oc2ccc(C(=O)N[C@@H](CC3CCCCC3)C(=O)NCCN3CCc4cc(F)ccc43)cc2)CC1 [Compound 68, N-(S)-{2-cyclohexyl-1-[2-(5-fluoro-2,3-dihydro-indol-1-yl)-ethylcarbamoyl]-ethyl}-4-(1-methanesulfonyl-piperidin-4-yloxy)-benzamide]
< 100 | C[C@@H](CNc1ccc(F)cc1)NC(=O)[C@H](CC1CCCCC1)NC(=O)c1ccc(-c2cccc(F)c2)o1 [Compound 126, 5-(3-Fluoro-phenyl)-furan-2-carboxylic acid {2-cyclohexyl-1-(S)-[2-(4-fluoro-phenylamino)-1-(S)-methyl-ethylcarbamoyl]-ethyl}-amide]
< 1000 | Cc1cc(NC[C@H](C)NC(=O)[C@H](CC2CCCCC2)NC(=O)c2ccc(-c3cccc(F)c3)o2)no1 [Compound 133, 5-(3-Fluoro-phenyl)-furan-2-carboxylic acid {2-cyclohexyl-1-(S)-[1-(S)-methyl-2-(5-methyl-isoxazol-3-ylamino)-ethylcarbamoyl]-ethyl}-amide]
< 1000 | O=C(N[C@@H](CC1CCCCC1)C(=O)NCCN1CCc2cc(F)ccc21)C1CCN(S(=O)(=O)c2ccc(Cl)cc2)CC1 [Compound 17, 1-(4-Chloro-benzenesulfonyl)-piperidine-4-carboxylic acid (S)-{2-cyclohexyl-1-[2-(5-fluoro-2,3-dihydro-indol-1-yl)-ethylcarbamoyl]-ethyl}-amide]
< 100 | CS(=O)(=O)NCc1ccc(C(=O)N[C@@H](CC2CCCCC2)C(=O)NCCN2CCc3cc(F)ccc32)cc1 [Compound 79, N-(S)-{2-cyclohexyl-1-[2-(5-fluoro-2,3-dihydro-indol-1-yl)-ethylcarbamoyl]-ethyl}-4-(methanesulfonylamino-methyl)-benzamide]
< 100 | CC[C@@H](C(=O)N[C@@H](CC1CCCCC1)C(=O)NCCN1CCc2cc(F)ccc21)c1ccccc1 [Compound 148, N-{2-cyclohexyl-1-(S)-[2-(5-fluoro-2,3-dihydro-indol-1-yl)-ethylcarbamoyl]-ethyl}-2-(R)-phenyl-butyramide]
< 1000 | Cn1cnc(C(=O)N[C@@H](CC2CCCCC2)C(=O)NCCN2CCc3cc(F)ccc32)c1 [Compound 63, 1-Methyl-1H-imidazole-4-carboxylic acid (S)-{2-cyclohexyl-1-[2-(5-fluoro-2,3-dihydro-indol-1-yl)-ethylcarbamoyl]-ethyl}-amide]
< 100 | COc1cccc(C(=O)N[C@@H](CC2CCCCC2)C(=O)N[C@@H](CC(=O)OCc2ccccc2)CN2CCc3cc(F)ccc32)c1 [Compound 161, 3-(S)-[3-Cyclohexyl-2-(S)-(3-methoxy-benzoylamino)-propionylamino]-4-(5-fluoro-2,3-dihydro-indol-1-yl)-butyric acid benzyl ester]

Compound | Ki [nM]
(S)-3-Cyclohexyl-N-[2-(5-fluoro-2,3-dihydro-indol-1-yl)-ethyl]-2-(5-isoxazol-3-yl-thiophene-2-sulfonylamino)-propionamide [Compound 223] | < 1000
